The compounds below were run against glutamate-activated channels of the GRIN1/2A subtype stably transfected in HEK 293 cells (Homo sapiens (Human), UniProt Q05586+Q12879) (assay: Automated patch-clamp system (QPatch HTX), percent potentiation at 1 μM). Settings: HEK293, 1 μM test compound, 300 μM NMDA with 8 μM glycine, HEK 293 GRIN1/2A, read-out: GluN2A PCA % potentiation at 1 μM.
Type: cell-based
Description: NMDA potentiation in mammalian cells which expressed NMDA receptors was assessed using the automatic patch-clamp system can be used determine the NAM activity of compounds as described below. An whole cell patch-clamp system can be used determine the PAM activity of compounds as described below.
Automated Patch-Clamp System (OPatch HTX):
In this study, HEK 293 cells stably transfected with glutamate-activated channels of the GRIN1/2A subtype will be used together with submaximal NMDA concentrations (300 μM NMDA, co-application with 8 μM Glycine) to investigate the negative allosteric modulation of the test compounds.
In general, cells will be passaged at a confluence of about 80% to […]. For electrophysiological measurements cells will be harvested at a confluence of about 80% to 90% from sterile culture flasks containing culture complete medium. Cells will be transferred as suspension in PBS to the QPatch 16X or QPatch HTX system to the centrifuge/washer directly.
Standard Laboratory Conditions: Cells will be incubated at 37° C. in a humidified atmosphere with 5% CO2 (rel. humidity about 95%).
Culture media: The cells will be continuously maintained in and passaged in sterile culture flasks containing a 1:1 mixture of Dulbecco's modified eagle medium and nutrient mixture F-12 (D-MEM/F-12 1×, liquid, with L-Glutamine) supplemented with 10% fetal bovine serum, 1% Penicillin/Streptomycin solution, and 50 μM AP-5 blocker.
Antibiotics: The complete medium as indicated above is supplemented with 100 μg/mL hygromycin, 15 μg/mL blasticidin and 1 μg/mL puromycin.
Induction of Expression: 2.5 μg/mL tetracycline is added 24 h before start of experiments.
Dose levels are in terms of test compounds, as supplied. Vehicle will be added to achieve a stock concentration of 10 mM (storage at −10° C. to −30° C.). A further stock solutions of 1.0 mM will be prepared in DMSO. Details of stock solution usage (thawing, dose formulations) will be documented in the raw data. The time period of stock solution usage will be detailed in the report.
Test Compound Concentrations
One test concentration of 1.0 μM will be tested.
All test solutions will be prepared by diluting the stock solutions with either Mg-free bath solution only or Mg-free bath solution containing NMDA (300 μM) and glycine (8.0 μM) shortly prior to the electrophysiological experiments and kept at room temperature (19° C. to 30° C.) when in use. 0.1% DMSO will be used as vehicle.
Frequency of preparation: For each test concentration, fresh solutions of test compounds will be prepared every day.
Stability of dose formulation: All preparation times will be documented in the raw data. Any observations regarding instability of test compounds will be mentioned in the raw data.
Storage of dose formulation: On the day of experimentation dose formulations will be maintained at room temperature (19° C. to 30° C.) when in use.
For preparing the experiments and for formation of the giga-ohm-seal, the following standard bath solution will be used:
Sodium Chloride: 137 mM; Potassium Chloride: 4 mM; Calcium Chloride: 1.8 mM; Magnesium Chloride: 1 mM; HEPES: 10 mM; D-Glucose: 10 mM; Cremophor: 0.02%; pH (NaOH): 7.4
The 1× bath solution will be prepared by diluting 10× bath solution without Glucose and 100× Glucose solution with water at least every 7 days. Both stock solutions have been prepared prior to the experimental start of the present study and stored at 1° C. to 9° C. (10× bath solution) or −10° C. to −30° (100× Glucose solution). The batch number(s) of the bath solution(s) used in the experiments will be documented in the raw data. When in use, the 1× bath solution will be kept at room temperature (19° C. to 30° C.). When not in use, the 1× bath solution will be stored at 1° C. to 9° C.
After the giga-seal was formed the following Mg-free bath solution will be used:
Sodium Chloride: 137 mM; Potassium Chloride: 4 mM; Calcium Chloride; 2.8 mM; HEPES: 10 mM; D-Glucose: 10 mM; Cremophor: 0.02%; pH (NaOH): 7.4 […]

glutamate-activated channels of the GRIN1/2A subtype stably transfected in HEK 293 cells, sequence (Q12879 whole entry, looked up, other chains not shown): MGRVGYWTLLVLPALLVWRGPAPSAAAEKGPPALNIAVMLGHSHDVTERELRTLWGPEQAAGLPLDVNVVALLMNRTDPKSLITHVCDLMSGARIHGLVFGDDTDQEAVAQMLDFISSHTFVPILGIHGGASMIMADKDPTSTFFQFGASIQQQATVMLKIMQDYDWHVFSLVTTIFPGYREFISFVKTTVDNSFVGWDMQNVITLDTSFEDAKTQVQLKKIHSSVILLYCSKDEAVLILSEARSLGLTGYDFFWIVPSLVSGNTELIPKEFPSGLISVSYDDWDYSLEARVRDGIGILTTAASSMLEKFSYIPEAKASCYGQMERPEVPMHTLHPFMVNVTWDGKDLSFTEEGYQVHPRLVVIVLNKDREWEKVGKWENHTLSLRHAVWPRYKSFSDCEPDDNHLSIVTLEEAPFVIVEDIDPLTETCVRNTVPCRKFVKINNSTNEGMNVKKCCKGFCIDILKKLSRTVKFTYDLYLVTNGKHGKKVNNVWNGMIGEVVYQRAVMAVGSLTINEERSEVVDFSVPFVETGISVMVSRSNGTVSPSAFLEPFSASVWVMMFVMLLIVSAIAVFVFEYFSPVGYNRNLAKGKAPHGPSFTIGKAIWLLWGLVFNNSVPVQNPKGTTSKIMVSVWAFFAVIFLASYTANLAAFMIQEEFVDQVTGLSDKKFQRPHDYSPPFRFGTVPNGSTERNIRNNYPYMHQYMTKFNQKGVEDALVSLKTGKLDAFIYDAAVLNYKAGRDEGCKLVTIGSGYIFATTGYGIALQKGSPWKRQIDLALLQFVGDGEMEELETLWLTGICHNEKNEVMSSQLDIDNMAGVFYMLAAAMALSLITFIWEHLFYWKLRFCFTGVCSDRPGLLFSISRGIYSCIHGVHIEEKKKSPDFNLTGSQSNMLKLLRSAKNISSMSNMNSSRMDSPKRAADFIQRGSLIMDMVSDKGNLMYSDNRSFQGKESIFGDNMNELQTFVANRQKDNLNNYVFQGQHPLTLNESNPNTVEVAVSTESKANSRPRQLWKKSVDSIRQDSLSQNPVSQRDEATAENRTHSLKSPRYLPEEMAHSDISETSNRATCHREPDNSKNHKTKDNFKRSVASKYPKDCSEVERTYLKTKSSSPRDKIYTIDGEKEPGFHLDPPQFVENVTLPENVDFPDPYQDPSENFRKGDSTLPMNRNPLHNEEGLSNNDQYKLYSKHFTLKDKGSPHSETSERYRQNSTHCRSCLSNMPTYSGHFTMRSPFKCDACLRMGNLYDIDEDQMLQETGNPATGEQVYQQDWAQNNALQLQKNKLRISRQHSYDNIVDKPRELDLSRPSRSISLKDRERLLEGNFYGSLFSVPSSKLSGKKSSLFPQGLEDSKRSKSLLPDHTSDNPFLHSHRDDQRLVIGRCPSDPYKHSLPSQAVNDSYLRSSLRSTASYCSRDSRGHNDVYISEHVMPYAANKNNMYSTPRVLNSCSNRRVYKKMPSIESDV

SMILES	activation at 1 µM
CC[C@H](O)[C@@H](C)[C@H]1CC[C@H]2[C@@H]3CC[C@H]4C[C@](O)(CC)CC[C@]4(C)[C@H]3CC[C@]12C [Compound 21, (3S,5S,8R,9S,10S,13S,14S,17R)-3-ethyl-17-((2S,3S)-3-hydroxypentan-2-yl)-10,13-dimethylhexadecahydro-1H-cyclopenta[a]phenanthren-3-ol]	-40 to -10%
C[C@@H]([C@H]1CC[C@H]2[C@@H]3CC[C@H]4C[C@](O)(C(F)(F)F)CC[C@]4(C)[C@H]3CC[C@]12C)[C@@H](C)O [Compound 22, (3S,5S,8R,9S,10S,13S,14S,17R)-17-((2S,3R)-3-hydroxybutan-2-yl)-10,13-dimethyl-3-(trifluoromethyl)hexadecahydro-1H-cyclopenta[a]phenanthren-3-ol]	-10 to 10%
COC[C@]1(O)CC[C@@]2(C)C(=CC[C@H]3[C@@H]4CC[C@H]([C@H](C)[C@H](O)C(F)(F)F)[C@@]4(C)CC[C@@H]32)C1 [Compound 39, (3S,8S,9S,10R,13S,14S,17R)-3-(methoxymethyl)-10,13-dimethyl-17-((2S,3S)-4,4,4-trifluoro-3-hydroxybutan-2-yl)-2,3,4,7,8,9,10,11,12,13,14,15,16,17-tetradecahydro-1H-cyclopenta[a]phenanthren-3-ol]	-40 to -10%
CC#CC[C@H](O)[C@@H](C)[C@H]1CC[C@H]2[C@@H]3CC[C@H]4C[C@](O)(CC)CC[C@]4(C)[C@H]3CC[C@]12C [Compound 41, (3S,5S,8R,9S,10S,13S,14S,17R)-3-ethyl-17-((2S,3S)-3-hydroxyhept-5-yn-2-yl)-10,13-dimethylhexadecahydro-1H-cyclopenta[a]phenanthren-3-ol]	-40 to -10%
CC[C@]1(O)CC[C@@]2(C)[C@H](CC[C@@H]3[C@@H]2CC[C@]2(C)[C@@H]([C@H](C)[C@@H](O)C(F)(F)F)CC[C@@H]32)C1 [Compound 43, (3S,5R,8R,9S,10S,13S,14S,17R)-3-ethyl-10,13-dimethyl-17-((2S,3R)-4,4,4-trifluoro-3-hydroxybutan-2-yl)hexadecahydro-1H-cyclopenta[a]phenanthren-3-ol]	< -40%
COC[C@]1(O)CC[C@H]2[C@H](CC[C@@H]3[C@@H]2CC[C@]2(C)[C@@H]([C@H](C)[C@@H](O)C(F)(F)F)CC[C@@H]32)C1 [Compound 45, (3S,5R,8R,9R,10S,13S,14S,17R)-3-(methoxymethyl)-13-methyl-17-((2S,3R)-4,4,4-trifluoro-3-hydroxybutan-2-yl)hexadecahydro-1H-cyclopenta[a]phenanthren-3-ol]	-40 to -10%
COC[C@]1(O)CC[C@H]2[C@H](CC[C@@H]3[C@@H]2CC[C@]2(C)[C@@H]([C@H](C)[C@H](O)C(F)(F)F)CC[C@@H]32)C1 [Compound 48, (3S,5R,8R,9R,10S,13S,14S,17R)-3-(methoxymethyl)-13-methyl-17-((2S,3S)-4,4,4-trifluoro-3-hydroxybutan-2-yl)hexadecahydro-1H-cyclopenta[a]phenanthren-3-ol]	-40 to -10%
CC[C@]1(O)CC[C@@]2(C)[C@@H](CC[C@@H]3[C@@H]2CC[C@]2(C)[C@@H]([C@H](C)[C@H](C)O)CC[C@@H]32)C1 [Compound 50, (3S,5S,8R,9S,10S,13S,14S,17R)-3-ethyl-17-((2S,3S)-3-hydroxybutan-2-yl)-10,13-dimethylhexadecahydro-1H-cyclopenta[a]phenanthren-3-ol]	-40 to -10%
C[C@H]([C@@H](O)C(F)(F)F)[C@H]1CC[C@H]2[C@@H]3CC=C4C[C@](O)(C(F)(F)F)CC[C@]4(C)[C@H]3CC[C@]12C [Compound 53, (3S,8S,9S,10R,13S,14S,17R)-10,13-dimethyl-17-((2S,3R)-4,4,4-trifluoro-3-hydroxybutan-2-yl)-3-(trifluoromethyl)-2,3,4,7,8,9,10,11,12,13,14,15,16,17-tetradecahydro-1H-cyclopenta[a]phenanthren-3-ol]	-40 to -10%
CC[C@]1(O)CC[C@@]2(C)[C@@H](CC[C@@H]3[C@@H]2CC[C@]2(C)[C@@H]([C@H](C)[C@@H](O)c4ccccc4)CC[C@@H]32)C1 [Compound 55, (3S,5S,8R,9S,10S,13S,14S,17R)-3-ethyl-17-((1R,2S)-1-hydroxy-1-phenylpropan-2-yl)-10,13-dimethylhexadecahydro-1H-cyclopenta[a]phenanthren-3-ol]	-40 to -10%
CC[C@]1(O)CC[C@@]2(C)[C@H](CC[C@@H]3[C@@H]2CC[C@]2(C)[C@@H]([C@H](C)[C@H](O)C(F)(F)F)CC[C@@H]32)C1 [Compound 56, (3S,5R,8R,9S,10S,13S,14S,17R)-3-ethyl-10,13-dimethyl-17-((2S,3S)-4,4,4-trifluoro-3-hydroxybutan-2-yl)hexadecahydro-1H-cyclopenta[a]phenanthren-3-ol]	< -40%
C[C@H]([C@@H](O)C(F)(F)F)[C@H]1CC[C@H]2[C@@H]3CC[C@@H]4C[C@@](C)(O)CC[C@]4(C)[C@H]3CC[C@]12C [Compound 57, (3S,5R,8R,9S,10S,13S,14S,17R)-3,10,13-trimethyl-17-((2S,3R)-4,4,4-trifluoro-3-hydroxybutan-2-yl)hexadecahydro-1H-cyclopenta[a]phenanthren-3-ol]	< -40%
CC[C@]1(O)CC[C@@]2(C)[C@@H](CC[C@@H]3[C@@H]2CC[C@]2(C)[C@@H]([C@H](C)[C@H](O)C4CCCC4)CC[C@@H]32)C1 [Compound 58, (3S,5S,8R,9S,10S,13S,14S,17R)-17-((1R,2S)-1-cyclopentyl-1-hydroxypropan-2-yl)-3-ethyl-10,13-dimethylhexadecahydro-1H-cyclopenta[a]phenanthren-3-ol]	-40 to -10%
CC[C@]1(O)CC[C@@]2(C)C(=CC[C@H]3[C@@H]4CC[C@H]([C@H](C)[C@@H](O)C(F)(F)F)[C@@]4(C)CC[C@@H]32)C1 [Compound 62, (3S,8S,9S,10R,13S,14S,17R)-3-ethyl-10,13-dimethyl-17-((2S,3R)-4,4,4-trifluoro-3-hydroxybutan-2-yl)-2,3,4,7,8,9,10,11,12,13,14,15,16,17-tetradecahydro-1H-cyclopenta[a]phenanthren-3-ol]	-40 to -10%
CC[C@]1(O)CC[C@@]2(C)[C@H](CC[C@@H]3[C@@H]2CC[C@]2(C)[C@@H]([C@H](C)[C@@H](O)CCC(C)C)CC[C@@H]32)C1 [Compound 64, (3S,5R,8R,9S,10S,13S,14S,17R)-3-ethyl-17-((2S,3S)-3-hydroxy-6-methylheptan-2-yl)-10,13-dimethylhexadecahydro-1H-cyclopenta[a]phenanthren-3-ol]	-40 to -10%
CC[C@]1(O)CC[C@@]2(C)[C@@H](CC[C@@H]3[C@@H]2CC[C@]2(C)[C@@H]([C@H](C)[C@@H](O)C(C)C)CC[C@@H]32)C1 [Compound 65, (3S,5S,8R,9S,10S,13S,14S,17R)-3-ethyl-17-((2S,3S)-3-hydroxy-4-methylpentan-2-yl)-10,13-dimethylhexadecahydro-1H-cyclopenta[a]phenanthren-3-ol]	-40 to -10%

— US11613556B2, “Oxysterols and methods of use thereof” (Sage Therapeutics, Inc., priority 2016, dated 2023)
